In paper PMC12321279, “Novel 4,5‐Dihydrothiazole‐Phenylpiperazine Derivatives: Synthesis, Docking Studies and Pharmacological Evaluation as Serotonergic Agents” (Chemmedchem, 2025):

Test system: mice
Assay: Novel object recognition (NOR) test
Format: in vivo
Conditions: doses of 30 and 15 mg kg^−1 i.p. 60 min prior to first trial
Experimental: The tests were performed on male white mice of the Albino Swiss strain, whose weight was between 24 and 30 g in Experimental Medicine Center, Medical University of Lublin, Poland. The animals were housed (four/five per cage). Before conducting the experimental tests, the animals were subjected to an adaptation that lasted seven days. This consisted of keeping them in a room with relatively constant conditions: a temperature of 22 ± 1 °C, a humidity of 55 ± 5% and lighting that mimicked the natural day and night rhythm (12 h/12 h). Constant access to food and water was provided. Standard feed—LSM Motycz pelleted feed—and tap water were used. Mice were randomly allocated to study groups. Each group was represented by 8–10 animals, depending on the research schedule. […]
The setup for the NOR test consisted of a square, open‐ended Plexiglas box (46 cm long × 35 cm high × 33 cm wide), with a 10‐lux light source suspended 50 cm above it. […] The duration of exploration of each object at T1, T2, and T3 was manually recorded using a stopwatch. The discrimination between F and N during T2 or T3 was assessed by comparing the time spent exploring each of them. Memory performance was assessed using the DI, calculated as (N − F)/ (N + F), representing the difference in exploration time between N and F, normalized by the total exploration time for both objects. […]

Structure (SMILES): O=C1C2C3C=CC(C3)C2C(=O)N1OCCCN1CCN(c2ccccc2C2=NCCS2)CC1 (stereo not shown) [FG‐7, 2‐(3‐(4‐(2‐(4,5‐dihydrothiazol‐2‐yl) phenyl) piperazin‐1‐yl) propoxy)‐3a,4,7,7a‐tetrahydro‐1 H‐4,7‐methanoisoindole‐1,3(2 H)‐dione]
- NOR test, memory consolidation expressed by the discrimination index (DI): showed activity in the novel object recognition (NOR) test
